# In patent publication US5747545A, “Method of preventing NMDA receptor complex-mediated Neuronal damage” (priority 1995, dated 1998):
# Entries after “also recorded” stand apart in the source; their conditions may differ.
# Legend:
# [1] = system: NMDA receptor (cortical neurons); experiment: Patch-clamp recording of NMDA-evoked current in cortical neurons; format: cell-based, rat (Sprague-Dawley)
# [2] = system: cortical neurons (NMDA receptor-mediated neurotoxicity); experiment: Neurotoxicity assay: survival of cortical neurons after DTT and NMDA exposure; format: cell-based, rat; settings: NTG 100 μM (30 μM NMDA, 30 min); SNP 400 μM (75 μM NMDA, 5 min); FIGS. 6A and 6B
# Protocol: To test compounds for their ability to prevent neurotoxicity, neuronal cell death may be assayed as follows. […] The candidate compound is tested by addition (e.g., in a series of concentrations ranging from 0.1 nM-10 mM) after DTT treatment but before NMDA treatment. The candidate compound can be added for minutes, hours, or even days prior to its washout period. […] Neuronal cultures are scored for cell survival after this overnight incubation because NMDA toxicity is often delayed by several hours following NMDA exposure.
# Using the neurotoxicity assay described above, the compounds sodium nitroprusside and nitroglycerin were tested individually for their ability to increase survival of neonatal cortical neurons.
# As shown in FIG. 6A-6D, surviving neurons are expressed as the percentage of viable neurons in the control culture dishes in the same experiment. The concentrations of drugs were as follows: APV (2 mM), NTG (100 μM), SNP (400 μM), DTT (0.5-2 mM), and reduced Hb (500 μM). […] Values are mean ±SEM for experiments run in triplicate on sibling cultures on separate days (total of 32 experiments). Astericks indicate significant difference compared with the value for DTT-NMDA exposure, P<0.05 (ANOVA followed by Scheffe multiple comparison of means.
# [3] = system: cerebral cortical infarct (rat pups); experiment: Bilateral carotid ligation plus hypoxia stroke model in rat pups pretreated with NTG patches; format: in vivo
# Protocol: Rat pups were treated with nitroglycerin (NTG) approximately for 36-48 hours before performing bilateral carotid ligations. The dosing regimen for the 3 groups of rat pups used to generate the data was as follows.
# Hair was removed from the abdominal region of the rat pup using a razor. One-quarter of a NTG patch (Minitran) was applied to the shaved area. A quarter patch of this size corresponds to a dose of 0.6 mg/24 hours (whole patch 2.4 mg/24 hr). Between 12 and 16 hours later, another quarter-patch was applied to the rat's abdomen, leaving the first on. This procedure was again repeated 12-16 hours later. Each rat pup received 3 or 4 quarter patches before surgery, which was performed two days later and consisted of bilateral carotid ligation followed by hypoxia to induce a stroke.
# Using this procedure of inducing NTG systemic tolerance, the following results were obtained: In the control group, 7/11 (64%) of the animals suffered large ([…]) cerebral cortical infarcts. In contrast, in the NTG-treated group, only 2/13 (15%) of the animals had any discernible cerebral infarct at all (P<0.03 by Fisher's exact test).
# Animals are operated on (to induce a stroke) approximately 48 hr after the initial administration of NTG patches.
# [4] = Development of tolerance to systemic effects of NTG in humans; format: in vivo, human
# Excerpt: Therefore, it is advantageous to induce NTG tolerance by gradually increasing dosage, thus increasing the neuronal protective effect.
# To illustrate the development of systemic tolerance, a human patient could be made tolerant by intravenous administration of NTG within 18-24 hr of continuous infusion (see for example, J. E. Shaffer, B. -A. Han, W. H. Chern, and F. W. Lee, J. Pharmacol. Exper. Therap., 1992;260:286-293; D. C. May, J. J. Popma, Wh. H. Black, S. Scahaffer, H. R. Lee, B. D. Levine, and L. D. Hillis, New Engl. J. Med. 1987;317:805-809; C. M. Newman, J. B. Warren, G. W. Taylor, A. R. Boobis, and D. S. Davis, Br. J. Pharmacol. 1990;99:825-829). Oral, nasal spray, or sublingual NTG could also be used to induce systemic tolerance.
# Another, perhaps easier, method for making humans tolerant within 24 hours to the systemic effects of NTG is to administer nitroglycerin as nitropaste or as a transdermal patch for transdermal delivery, for instance, as follows: 1/2inch every 4 to 6 hours, while monitoring the blood pressure (to see when hypotension subsides from the applied nitropaste). As tolerated (e.g., in the absence of sudden drops in blood pressure), the dose of nitropaste is increased to up to 3 inches with each administration. Under these conditions, tolerance (as evidenced by no effect on systemic blood pressure) will develop in 18-24 hours or less. […]
# [5] = intravenous NTG, human; cited from earlier work
compound,measurement,setting,value
"O=[N+]([O-])OCC(CO[N+](=O)[O-])O[N+](=O)[O-] [NTG, 1,2,3-propanetriol trinitrate]",Effect on NMDA-evoked current,"[1]; 50 μM NMDA + 1 μM glycine, -60 mV, DTT 2 mM, NTG 500 μM, DTNB 500 μM, 2 min exposure, washout, FIG. 4",attenuated; also recorded: inhibited the responses
same,Effect on amplitude of NMDA evoked current following alkylation with NEM,[1]; after 1-5 mM NEM,neither NTG nor DTNB significantly affected the amplitude of NMDA evoked current
same,Effect on neuronal injury engendered by NMDA after exposure to DTT,[2],ameliorated neuronal injury
same,Animals with any discernible cerebral infarct (number/total),"[3]; NTG patches approx. 36-48 h before bilateral carotid ligation, control 7/11 (64%) large infarcts, P<0.03 Fisher's exact test",2/13
same,Animals with any discernible cerebral infarct (percent),"[3]; NTG patches approx. 36-48 h before bilateral carotid ligation, control 64%, P<0.03",15%
same,Cerebral protection,"[3]; NTG transdermal patches, tolerance-inducing procedure",cerebral protective
same,"Time to systemic tolerance, nitropaste or transdermal patch","[4]; no effect on systemic blood pressure, nitropaste dose escalated up to 3 inches, ""will develop in 18-24 hours or less""",18 to 24 h
same,Tolerance to undesired systemic effects,"[4]; systemic effects e.g. blood pressure drop, coronary artery dilation or headache",patients can be made tolerant to the undesired systemic effects of NTG
same,"Time to systemic tolerance, intravenous continuous infusion",[5],18 to 24 h
